Data published in patent US20230257396A1, “MACROCYCLES AND THEIR USE” (BLOSSOMHILL THERAPEUTICS, INC., priority 2020, published 2023).
Changes are numbered by the printed parent chain.

Experiments:
Assay in all cases: KINOMEscan kinase binding assay (Eurofins/DiscoveRx), % Ctrl
kinases [1] = target: T1, kinases (Homo sapiens, UniProt P00519, E255K)
T1 construct: purchased Eurofins/DiscoveRx; host or cells: E. coli BL21-derived host (T7 phage display) for most kinases; HEK-293 for the rest
Method in brief: (§1)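 Competition binding: DNA- or phage-tagged kinases (T7 phage in E. coli BL21, or HEK-293-expressed) with immobilized biotinylated ligand beads and test compound, 1 h at room temperature. Bead-bound kinase eluted and quantified by qPCR; % Ctrl = (compound − positive control)/(negative control − positive control) ×100 at a single compound concentration.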

kinases [2] = target: T2, kinases (Homo sapiens, UniProt P00519, F317L)
T2 construct: purchased Eurofins/DiscoveRx; host or cells: E. coli BL21-derived host (T7 phage display) for most kinases; HEK-293 for the rest
T2 sequence (P00519 whole entry F317L): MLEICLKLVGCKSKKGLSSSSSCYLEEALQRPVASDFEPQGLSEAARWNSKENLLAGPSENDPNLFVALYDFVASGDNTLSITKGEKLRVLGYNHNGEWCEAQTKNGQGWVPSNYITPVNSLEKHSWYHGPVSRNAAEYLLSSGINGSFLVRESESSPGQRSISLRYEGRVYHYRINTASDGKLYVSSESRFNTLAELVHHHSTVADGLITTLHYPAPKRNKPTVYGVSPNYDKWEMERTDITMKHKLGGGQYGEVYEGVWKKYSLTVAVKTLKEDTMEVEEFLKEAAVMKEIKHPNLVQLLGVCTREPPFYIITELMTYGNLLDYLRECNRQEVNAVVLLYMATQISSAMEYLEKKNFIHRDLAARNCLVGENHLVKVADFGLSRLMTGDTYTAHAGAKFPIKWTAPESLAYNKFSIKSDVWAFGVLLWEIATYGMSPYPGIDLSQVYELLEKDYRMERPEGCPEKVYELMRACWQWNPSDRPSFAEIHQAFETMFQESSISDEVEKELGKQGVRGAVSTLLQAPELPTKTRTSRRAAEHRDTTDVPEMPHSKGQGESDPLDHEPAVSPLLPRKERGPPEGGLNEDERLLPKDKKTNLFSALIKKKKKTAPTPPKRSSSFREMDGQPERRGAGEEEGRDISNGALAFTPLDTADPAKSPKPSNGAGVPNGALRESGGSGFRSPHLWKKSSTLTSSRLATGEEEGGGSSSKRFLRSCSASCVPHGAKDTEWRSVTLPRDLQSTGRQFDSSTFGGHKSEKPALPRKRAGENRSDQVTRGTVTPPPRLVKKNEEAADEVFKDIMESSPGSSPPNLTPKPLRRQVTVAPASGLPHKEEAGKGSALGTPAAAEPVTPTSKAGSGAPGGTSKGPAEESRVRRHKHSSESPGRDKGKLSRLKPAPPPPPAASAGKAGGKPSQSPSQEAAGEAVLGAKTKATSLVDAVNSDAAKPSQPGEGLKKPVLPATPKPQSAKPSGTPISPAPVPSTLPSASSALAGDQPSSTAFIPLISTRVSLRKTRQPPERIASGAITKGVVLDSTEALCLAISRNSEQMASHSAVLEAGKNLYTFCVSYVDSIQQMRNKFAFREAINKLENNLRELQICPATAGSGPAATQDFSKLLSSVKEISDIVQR
Method in brief: as §1

kinases [3] = target: T3, kinases (Homo sapiens, UniProt P00533, G719S)
T3 construct: purchased Eurofins/DiscoveRx; host or cells: E. coli BL21-derived host (T7 phage display) for most kinases; HEK-293 for the rest
Method in brief: as §1

kinases [4] = target: T4, kinases (Homo sapiens, UniProt P10721, D816H)
T4 construct: purchased Eurofins/DiscoveRx; host or cells: E. coli BL21-derived host (T7 phage display) for most kinases; HEK-293 for the rest
T4 sequence (P10721 26-976 D816H): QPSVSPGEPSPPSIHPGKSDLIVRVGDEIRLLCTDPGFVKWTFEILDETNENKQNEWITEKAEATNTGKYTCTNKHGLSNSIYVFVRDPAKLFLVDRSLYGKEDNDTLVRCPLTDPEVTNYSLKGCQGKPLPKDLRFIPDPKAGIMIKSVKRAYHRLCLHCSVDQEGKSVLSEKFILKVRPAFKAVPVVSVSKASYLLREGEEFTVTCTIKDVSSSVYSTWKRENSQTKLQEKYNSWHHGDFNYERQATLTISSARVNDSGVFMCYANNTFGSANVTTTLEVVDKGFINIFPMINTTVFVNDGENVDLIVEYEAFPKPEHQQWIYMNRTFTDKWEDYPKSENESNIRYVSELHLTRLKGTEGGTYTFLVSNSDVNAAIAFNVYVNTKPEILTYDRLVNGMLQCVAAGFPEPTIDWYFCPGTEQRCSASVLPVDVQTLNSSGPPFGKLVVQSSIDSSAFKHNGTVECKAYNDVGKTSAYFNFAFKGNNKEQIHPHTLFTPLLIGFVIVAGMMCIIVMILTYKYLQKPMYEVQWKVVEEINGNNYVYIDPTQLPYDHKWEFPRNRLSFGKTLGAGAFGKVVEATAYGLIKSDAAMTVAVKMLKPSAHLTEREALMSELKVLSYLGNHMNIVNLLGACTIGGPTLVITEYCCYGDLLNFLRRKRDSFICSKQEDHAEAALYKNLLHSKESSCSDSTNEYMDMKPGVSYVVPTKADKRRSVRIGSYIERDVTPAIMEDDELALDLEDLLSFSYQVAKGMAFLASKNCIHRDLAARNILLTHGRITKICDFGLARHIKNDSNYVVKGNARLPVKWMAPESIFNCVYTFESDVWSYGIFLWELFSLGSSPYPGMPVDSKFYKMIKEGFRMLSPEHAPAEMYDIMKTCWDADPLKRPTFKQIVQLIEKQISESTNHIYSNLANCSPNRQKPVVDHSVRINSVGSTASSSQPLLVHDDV
Method in brief: as §1

kinases [5] = target: T5, kinases (Homo sapiens, UniProt P36888, D835H)
T5 construct: purchased Eurofins/DiscoveRx; host or cells: E. coli BL21-derived host (T7 phage display) for most kinases; HEK-293 for the rest
T5 sequence (P36888 27-993 D835H): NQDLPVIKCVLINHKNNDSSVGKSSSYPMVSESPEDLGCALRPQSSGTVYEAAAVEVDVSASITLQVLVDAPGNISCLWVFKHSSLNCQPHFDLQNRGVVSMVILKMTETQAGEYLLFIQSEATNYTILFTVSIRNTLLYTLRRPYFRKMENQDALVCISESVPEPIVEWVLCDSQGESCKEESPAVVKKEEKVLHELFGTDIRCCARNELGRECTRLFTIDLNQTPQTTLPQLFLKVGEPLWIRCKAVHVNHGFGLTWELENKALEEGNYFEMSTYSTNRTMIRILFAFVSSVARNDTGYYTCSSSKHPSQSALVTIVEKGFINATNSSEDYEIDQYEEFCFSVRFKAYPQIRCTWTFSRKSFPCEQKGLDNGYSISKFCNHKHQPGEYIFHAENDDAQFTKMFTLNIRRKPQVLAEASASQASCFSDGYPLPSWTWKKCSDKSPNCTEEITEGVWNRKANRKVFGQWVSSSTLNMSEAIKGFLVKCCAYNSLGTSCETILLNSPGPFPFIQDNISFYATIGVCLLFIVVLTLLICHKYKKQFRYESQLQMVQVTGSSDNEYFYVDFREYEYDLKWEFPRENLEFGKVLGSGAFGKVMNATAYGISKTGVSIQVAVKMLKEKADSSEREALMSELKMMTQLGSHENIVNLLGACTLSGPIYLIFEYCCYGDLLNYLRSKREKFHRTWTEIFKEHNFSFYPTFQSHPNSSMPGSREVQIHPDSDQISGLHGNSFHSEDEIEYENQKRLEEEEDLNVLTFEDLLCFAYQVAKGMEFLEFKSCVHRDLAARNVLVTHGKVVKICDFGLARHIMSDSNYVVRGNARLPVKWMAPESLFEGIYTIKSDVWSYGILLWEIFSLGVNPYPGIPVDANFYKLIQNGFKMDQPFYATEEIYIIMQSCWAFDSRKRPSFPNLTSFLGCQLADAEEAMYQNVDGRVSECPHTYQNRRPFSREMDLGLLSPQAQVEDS
Method in brief: as §1

kinases [6] = target: T6, kinases (Homo sapiens, UniProt P36888, D835V)
T6 construct: purchased Eurofins/DiscoveRx; host or cells: E. coli BL21-derived host (T7 phage display) for most kinases; HEK-293 for the rest
T6 sequence (P36888 27-993 D835V): T5 sequence (P36888 27-993 D835H) with H809V
Method in brief: as §1

[7] = 1 μM; ABL1(E255K)-phosphorylated
[8] = 1 μM; ABL1(F317L)-nonphosphorylated
[9] = 1 μM; ABL1(F317L)-phosphorylated
[10] = 1 μM; target ABL1(E255K)-phosphorylated
[11] = 1 μM; target ABL1(F317L)-nonphosphorylated
[12] = 1 μM; target ABL1(F317L)-phosphorylated

T1 sequence (P00519 whole entry E255K): as the sequence (P00519 whole entry F317L) above, with E255K, L317F counted along it

Structure (SMILES) | % Ctrl, ABL1(E255K)-phosphorylated (kinases [1]; [7]) | % Ctrl, ABL1(F317L)-nonphosphorylated (kinases [2]; [8]) | % Ctrl, ABL1(F317L)-phosphorylated (kinases [2]; [9]) | % Ctrl, EGFR(G719S) (kinases [3]; 1 μM; EGFR(G719S)) | % Ctrl, KIT(D816H) (kinases [4]; 1 μM; KIT(D816H)) | % Ctrl, FLT3(D835H) (kinases [5]; 1 μM; FLT3(D835H)) | % Ctrl, FLT3(D835V) (kinases [6]; 1 μM; FLT3(D835V)) | % Ctrl, ABL1(E255K)-phosphorylated (kinases [1]; [10]) | % Ctrl, ABL1(F317L)-nonphosphorylated (kinases [2]; [11]) | % Ctrl, ABL1(F317L)-phosphorylated (kinases [2]; [12]) | % Ctrl, EGFR(G719S) (kinases [3]; 1 μM; target EGFR(G719S)) | % Ctrl, KIT(D816H) (kinases [4]; 1 μM; target KIT(D816H)) | % Ctrl, FLT3(D835H) (kinases [5]; 1 μM; target FLT3(D835H)) | % Ctrl, FLT3(D835V) (kinases [6]; 1 μM; target FLT3(D835V)) | other results
Cc1cc2c([nH]1)/C=C1\C(=O)Nc3ccc(cc31)-c1ccnn1CCOCCN(C)C2=O [Ex. 41, [19a(20)Z]-2,5-dimethyl-6,7,9,10-tetrahydro-1H-15,17-(ethanediylidene)pyrazolo[1,5-d]dipyrrolo[3,4-h:2′,3′-k][1,4,14]oxadiazacyclohexadecine-4,19(5H,18H)-dione] | 49 % Ctrl | 26 % Ctrl | 53 % Ctrl | 86 % Ctrl | 38 % Ctrl | 5.2 % Ctrl | 0.25 % Ctrl | – | – | – | – | – | – | – | –
Cc1cc2c([nH]1)/C=C1\C(=O)Nc3cc(Cl)c(cc31)SCCOCCN(C)C2=O [Ex. 169, [16a(17)Z]-19-chloro-5-methyl-6,7,9,10-tetrahydro-1H-12,14-(ethanediylidene)dipyrrolo[3,4-g:2′,3′-j][1,4,13]oxathiazacyclopentadecine-4,16(5H,15H)-dione] | – | – | – | – | – | – | – | 0.3 % Ctrl | 0.6 % Ctrl | 0.1 % Ctrl | 88 % Ctrl | 8.3 % Ctrl | 0.1 % Ctrl | 0 % Ctrl | –
Cc1cc2c([nH]1)/C=C1\C(=O)Nc3ccc(cc31)-c1ccnn1CCNCCNC2=O [Ex. 43, [19a(20)Z]-2-methyl-5,6,7,8,9,10-hexahydro-15,17-(ethanediylidene)pyrazolo[1,5-g]dipyrrolo[3,4-k:2′,3′-n][1,4,7]triazacyclohexadecine-4,19(1H,18H)-dione] | 84 % Ctrl | 63 % Ctrl | 90 % Ctrl | 92 % Ctrl | 65 % Ctrl | 93 % Ctrl | 27 % Ctrl | – | – | – | – | – | – | – | –
Cc1cc2c([nH]1)/C=C1\C(=O)Nc3ccc(cc31)-c1c(noc1C)CNCCN(C)C2=O [Ex. 139, [3a(4)Z]-6,9,16-trimethyl-10,11,12,13-tetrahydro-2H-1,17-(ethanediylidene)[1,2]oxazolo[4,3-m]dipyrrolo[3,2-f:3′,4′-i][1,4]diazacyclopentadecine-3,8(5H,9H)-dione] | – | – | – | – | – | – | – | – | – | – | – | – | – | – | % Ctrl, ABL1(E255K)-phosphorylated (kinases [1]; target ABL1(E255K)-phosphorylated; 1 μM): 4.7 % Ctrl; % Ctrl, ABL1(F317L)-nonphosphorylated (kinases [2]; target ABL1(F317L)-nonphosphorylated; 1 μM): 48 % Ctrl; % Ctrl, ABL1(F317L)-phosphorylated (kinases [2]; target ABL1(F317L)-phosphorylated; 1 μM): 39 % Ctrl; % Ctrl, EGFR(G719S) (kinases [3]; target EGFR(G719S); 1 μM): 84 % Ctrl; % Ctrl, KIT(D816H) (kinases [4]; target KIT(D816H); 1 μM): 67 % Ctrl; % Ctrl, FLT3(D835H) (kinases [5]; target FLT3(D835H); 1 μM): 14 % Ctrl; % Ctrl, FLT3(D835V) (kinases [6]; target FLT3(D835V); 1 μM): 0.9 % Ctrl

Further lines, with some results ahead:

% Ctrl, ABL1(E255K)-phosphorylated (kinases [1]; [7]) | % Ctrl, ABL1(F317L)-nonphosphorylated (kinases [2]; [8]) | % Ctrl, ABL1(F317L)-phosphorylated (kinases [2]; [9]) | % Ctrl, EGFR(G719S) (kinases [3]; 1 μM; EGFR(G719S)) | % Ctrl, KIT(D816H) (kinases [4]; 1 μM; KIT(D816H)) | % Ctrl, FLT3(D835H) (kinases [5]; 1 μM; FLT3(D835H)) | % Ctrl, FLT3(D835V) (kinases [6]; 1 μM; FLT3(D835V)) | % Ctrl, ABL1(E255K)-phosphorylated (kinases [1]; [10]) | % Ctrl, ABL1(F317L)-nonphosphorylated (kinases [2]; [11]) | % Ctrl, ABL1(F317L)-phosphorylated (kinases [2]; [12]) | % Ctrl, EGFR(G719S) (kinases [3]; 1 μM; target EGFR(G719S)) | % Ctrl, KIT(D816H) (kinases [4]; 1 μM; target KIT(D816H)) | % Ctrl, FLT3(D835H) (kinases [5]; 1 μM; target FLT3(D835H)) | % Ctrl, FLT3(D835V) (kinases [6]; 1 μM; target FLT3(D835V)) | Structure (SMILES) | other results
– | – | – | – | – | – | – | 1.8 % Ctrl | 41 % Ctrl | 8.7 % Ctrl | 99 % Ctrl | 10 % Ctrl | 0.7 % Ctrl | 1.8 % Ctrl | Cc1cc2c([nH]1)/C=C1\C(=O)Nc3ccc(cc31)-c1cnn(C)c1OCCCN(C)C2=O [Ex. 166, [3a(4)Z]-9,14-dimethyl-9,10,11,12-tetrahydro-14H-1,17-(ethanediylidene)pyrazolo[4,3-n]dipyrrolo[3,2-g:3′,4′-j][1,5]oxazacyclopentadecine-3,8(2H,5H)-dione] | –
– | – | – | – | – | – | – | 0.1 % Ctrl | 1.6 % Ctrl | 1.3 % Ctrl | 74 % Ctrl | 22 % Ctrl | 0.3 % Ctrl | 1.1 % Ctrl | CN1CCOc2cc3c(cc2Cl)NC(=O)/C3=C\c2[nH]ccc2C(=O)N(C)CC1 [Ex. 164, [16a(17)Z]-19-chloro-2,5,8-trimethyl-5,6,7,8,9,10-hexahydro-12,14-(ethanediylidene)dipyrrolo[3,2-i:3′,4′-l][1,4,7]oxadiazacyclopentadecine-4,16(1H,15H)-dione] | –
0.1 % Ctrl | 4.1 % Ctrl | 0.8 % Ctrl | 72 % Ctrl | 60 % Ctrl | 0.15 % Ctrl | 0.15 % Ctrl | – | – | – | – | – | – | – | Cc1cc2c([nH]1)/C=C1\C(=O)Nc3ccc(cc31)-c1c(C)n[nH]c1CNCCN(C)C2=O [Ex. 127, [3a(4)Z]-6,9,16-trimethyl-9,10,11,12,13,14-hexahydro-1,17-(ethanediylidene)pyrazolo[4,3-m]dipyrrolo[3,2-f:3′,4′-i][1,4]diazacyclopentadecine-3,8(2H,5H)-dione] | –
22 % Ctrl | 6.5 % Ctrl | 76 % Ctrl | 98 % Ctrl | 87 % Ctrl | 32 % Ctrl | 3.7 % Ctrl | – | – | – | – | – | – | – | Cc1cc2c([nH]1)/C=C1\C(=O)Nc3ccc(cc31)O[C@@H](C)COCCN(C)C2=O [Ex. 92, [10S,16a(17)Z]-2,5,10-trimethyl-6,7,9,10-tetrahydro-1H-12,14-(ethanediylidene)dipyrrolo[3,2-i:3′,4′-l][1,4,7]dioxazacyclopentadecine-4,16(5H,15H)-dione] | –
85 % Ctrl | 100 % Ctrl | 100 % Ctrl | 76 % Ctrl | 100 % Ctrl | 99 % Ctrl | 100 % Ctrl | – | – | – | – | – | – | – | Cc1cc2c([nH]1)/C=C1\C(=O)Nc3cnc(nc31)N(C)CCCOCCN(C)C2=O [Ex.71, [17a(18)Z]-2,5,12-trimethyl-6,7,9,10,11,12-hexahydro-1H-13,15-(azenometheno)dipyrrolo[3,2-f:3′,4′-i][1,4,11,13]oxatriazacyclohexadecine-4,17(5H,16H)-dione] | –
